Reference: PubChem BioAssay (NCI)
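Cultured in 96-well plates, cells were exposed to test compound for 48 hours across five concentrations. GI50 = concentration required for 50% inhibition of growth. TGI: concentration producing complete growth inhibition.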

Experiments:
Experiment in all cases: growth of human tumour cells (NCI), 48 h
HOP-92 NSCLC = tested on: HOP-92 NSCLC
HL-60(TB) leukemia = tested on: HL-60(TB) leukemia
SF-539 CNS = tested on: SF-539 CNS
OVCAR-3 ovarian = tested on: OVCAR-3 ovarian
OVCAR-8 ovarian = tested on: OVCAR-8 ovarian
RXF 393 renal = tested on: RXF 393 renal
LOX IMVI melanoma = tested on: LOX IMVI melanoma
UO-31 renal = tested on: UO-31 renal
NCI-H226 lung = tested on: NCI-H226 lung
CAKI-1 renal = tested on: CAKI-1 renal
MALME-3M melanoma = tested on: MALME-3M melanoma
HCT-15 colon = tested on: HCT-15 colon
M14 melanoma = tested on: M14 melanoma
786-0 renal = tested on: 786-0 renal
NCI/ADR-RES ovarian = tested on: NCI/ADR-RES ovarian
SN12C renal = tested on: SN12C renal
IGROV1 ovarian = tested on: IGROV1 ovarian
K-562 leukemia = tested on: K-562 leukemia
HCC-2998 colon = tested on: HCC-2998 colon
ACHN renal = tested on: ACHN renal
TK-10 renal = tested on: TK-10 renal
UACC-257 melanoma = tested on: UACC-257 melanoma
NCI-H23 lung = tested on: NCI-H23 lung
MDA-MB-231 breast = tested on: MDA-MB-231 breast
HT29 colon = tested on: HT29 colon
SW-620 colon = tested on: SW-620 colon
PC-3 prostate = tested on: PC-3 prostate
NCI-H522 lung = tested on: NCI-H522 lung
EKVX NSCLC = tested on: EKVX NSCLC
A549 NSCLC = tested on: A549 NSCLC
SNB-75 CNS = tested on: SNB-75 CNS
OVCAR-5 ovarian = tested on: OVCAR-5 ovarian
MCF7 breast = tested on: MCF7 breast
SF-268 CNS = tested on: SF-268 CNS
MDA-MB-435 = tested on: MDA-MB-435
SK-MEL-2 melanoma = tested on: SK-MEL-2 melanoma
CCRF-CEM leukemia = tested on: CCRF-CEM leukemia
HCT-116 colon = tested on: HCT-116 colon
UACC-62 melanoma = tested on: UACC-62 melanoma
SR leukemia = tested on: SR leukemia
HS 578T breast = tested on: HS 578T breast
U251 CNS = tested on: U251 CNS
COLO 205 colon = tested on: COLO 205 colon
SK-MEL-28 melanoma = tested on: SK-MEL-28 melanoma
SNB-19 CNS = tested on: SNB-19 CNS
RPMI-8226 leukemia = tested on: RPMI-8226 leukemia
DU-145 prostate = tested on: DU-145 prostate
SF-295 CNS = tested on: SF-295 CNS
BT-549 breast = tested on: BT-549 breast
KM12 colon = tested on: KM12 colon
MOLT-4 leukemia = tested on: MOLT-4 leukemia
OVCAR-4 ovarian = tested on: OVCAR-4 ovarian
SK-OV-3 ovarian = tested on: SK-OV-3 ovarian
T-47D breast = tested on: T-47D breast
NCI-H460 lung = tested on: NCI-H460 lung

With `N#C[Se]Cc1cc(-c2ccccc2)n(-c2ccc(S(N)(=O)=O)cc2)n1` the GI50 (HOP-92 NSCLC) was 2100 nM, the TGI (HOP-92 NSCLC) was 4610 nM and the GI50 (HL-60(TB) leukemia) was 939 nM. The TGI (HL-60(TB) leukemia) was 3870 nM, the GI50 (SF-539 CNS) was 1380 nM and the TGI (SF-539 CNS) was 2770 nM. The GI50 (OVCAR-3 ovarian) was 1180 nM, the TGI (OVCAR-3 ovarian) was 2980 nM and the GI50 (OVCAR-8 ovarian) was 1350 nM. For the same molecule, the TGI (OVCAR-8 ovarian) was > 23200 nM, the GI50 (RXF 393 renal) was 542 nM and the TGI (RXF 393 renal) was 1920 nM. For the same molecule, the GI50 (LOX IMVI melanoma) was 171 nM, the TGI (LOX IMVI melanoma) was 324 nM and the GI50 (UO-31 renal) was 1490 nM. The TGI (UO-31 renal) was 5960 nM, the GI50 (NCI-H226 lung) was 249 nM and the TGI (NCI-H226 lung) was 648 nM. For the same molecule, the GI50 (CAKI-1 renal) was 2070 nM, the TGI (CAKI-1 renal) was 5240 nM and the GI50 (MALME-3M melanoma) was 2200 nM. For the same molecule, the TGI (MALME-3M melanoma) was 6600 nM, the GI50 (HCT-15 colon) was 2050 nM and the TGI (HCT-15 colon) was 5550 nM. For the same molecule, the GI50 (M14 melanoma) was 240 nM, the TGI (M14 melanoma) was 659 nM and the GI50 (786-0 renal) was 2630 nM. For the same molecule, the TGI (786-0 renal) was 6490 nM, the GI50 (NCI/ADR-RES ovarian) was 5510 nM and the TGI (NCI/ADR-RES ovarian) was 40000 nM. It also gave a GI50 (SN12C renal) of 527 nM, a TGI (SN12C renal) of 4100 nM and a GI50 (IGROV1 ovarian) of 322 nM. For the same molecule, the TGI (IGROV1 ovarian) was 1080 nM, the GI50 (K-562 leukemia) was 1150 nM and the TGI (K-562 leukemia) was 9880 nM. For the same molecule, the GI50 (HCC-2998 colon) was 2240 nM, the TGI (HCC-2998 colon) was 4940 nM and the GI50 (ACHN renal) was 1980 nM. The TGI (ACHN renal) was 4220 nM, the GI50 (TK-10 renal) was 2350 nM and the TGI (TK-10 renal) was 7830 nM. The GI50 (UACC-257 melanoma) was 2210 nM, the TGI (UACC-257 melanoma) was 6630 nM and the GI50 (NCI-H23 lung) was 495 nM. The TGI (NCI-H23 lung) was 2550 nM, the GI50 (MDA-MB-231 breast) was 912 nM and the TGI (MDA-MB-231 breast) was 3120 nM. The GI50 (HT29 colon) was 1460 nM, the TGI (HT29 colon) was 3360 nM and the GI50 (SW-620 colon) was 2180 nM. It also gave a TGI (SW-620 colon) of 4800 nM, a GI50 (PC-3 prostate) of 711 nM and a TGI (PC-3 prostate) of 3560 nM. For the same molecule, the GI50 (NCI-H522 lung) was 2140 nM, the TGI (NCI-H522 lung) was 5550 nM and the GI50 (EKVX NSCLC) was 688 nM. It also gave a TGI (EKVX NSCLC) of 12600 nM, a GI50 (A549 NSCLC) of 605 nM and a TGI (A549 NSCLC) of 2120 nM. The GI50 (SNB-75 CNS) was 590 nM, the TGI (SNB-75 CNS) was 3510 nM and the GI50 (OVCAR-5 ovarian) was 1860 nM. It also gave a TGI (OVCAR-5 ovarian) of 3970 nM, a GI50 (MCF7 breast) of 420 nM and a TGI (MCF7 breast) of 9780 nM. For the same molecule, the GI50 (SF-268 CNS) was 336 nM, the TGI (SF-268 CNS) was 1330 nM and the GI50 (MDA-MB-435) was 605 nM. For the same molecule, the TGI (MDA-MB-435) was 2450 nM, the GI50 (SK-MEL-2 melanoma) was 2320 nM and the TGI (SK-MEL-2 melanoma) was 5600 nM. For the same molecule, the GI50 (CCRF-CEM leukemia) was 914 nM, the TGI (CCRF-CEM leukemia) was > 27300 nM and the GI50 (HCT-116 colon) was 383 nM. It also gave a TGI (HCT-116 colon) of 1320 nM, a GI50 (UACC-62 melanoma) of 1660 nM and a TGI (UACC-62 melanoma) of 3750 nM. For the same molecule, the GI50 (SR leukemia) was 1370 nM, the TGI (SR leukemia) was 6130 nM and the GI50 (HS 578T breast) was 637 nM. The TGI (HS 578T breast) was 5210 nM, the GI50 (U251 CNS) was 544 nM and the TGI (U251 CNS) was 1780 nM. For the same molecule, the GI50 (COLO 205 colon) was 1930 nM, the TGI (COLO 205 colon) was 3610 nM and the GI50 (SK-MEL-28 melanoma) was 359 nM. For the same molecule, the TGI (SK-MEL-28 melanoma) was 1340 nM, the GI50 (SNB-19 CNS) was 587 nM and the TGI (SNB-19 CNS) was 1880 nM. For the same molecule, the GI50 (RPMI-8226 leukemia) was 1900 nM, the TGI (RPMI-8226 leukemia) was 5020 nM and the GI50 (DU-145 prostate) was 735 nM. It also gave a TGI (DU-145 prostate) of 2000 nM, a GI50 (SF-295 CNS) of 444 nM and a TGI (SF-295 CNS) of 2480 nM. It also gave a GI50 (BT-549 breast) of 1680 nM, a TGI (BT-549 breast) of 4550 nM and a GI50 (KM12 colon) of 881 nM. It also gave a TGI (KM12 colon) of 3220 nM, a GI50 (MOLT-4 leukemia) of 433 nM and a TGI (MOLT-4 leukemia) of 4360 nM. It also gave a GI50 (OVCAR-4 ovarian) of 2610 nM, a TGI (OVCAR-4 ovarian) of 8160 nM and a GI50 (SK-OV-3 ovarian) of 2690 nM. For the same molecule, the TGI (SK-OV-3 ovarian) was 5260 nM, the GI50 (T-47D breast) was 2190 nM and the TGI (T-47D breast) was 7280 nM. It also gave a GI50 (NCI-H460 lung) of 264 nM and a TGI (NCI-H460 lung) of 743 nM.
